From paper PMC11993615, “Design, synthesis and optimization of TarO inhibitors as multifunctional antibiotics against Methicillin-resistant Staphylococcus aureus” (npj Antimicrobials and Resistance, 2025)
Converted amounts (≈) assume the structure as drawn.

Experiments:
HS663 [1] = assay: MIC determination, broth microdilution
TarO = TarO (Staphylococcus aureus, UniProt Q2G060); type: cell-based; conditions: for IC50: relative inhibition rate against the wild-type strain, OD600 at 20 h, n.a. = IC50 cannot be calculated within the test range
HS663 [2] = assay: Checkerboard MIC assay with imipenem; type: cell-based, Staphylococcus aureus; conditions: for FICI / Sensitization fold / Maximum sensitization concentration / Minimum sensitization concentration: HS663/imipenem; for Maximum sensitization concentration / Minimum sensitization concentration: test range 0.03–32 μg/mL; for MIC of β-lactam, combined: HS663
Method: (§1) In the checkerboard assay, concentrations of antibiotics, oxacillin and imipenem, and TarO inhibitors were simultaneously varied across columns and the rows, respectively. […] The range of each compound chosen for the checkerboard assay was according to their MIC value. […] For each clear well observed on the checkerboard MIC plate, the fractional inhibitory concentration index (FICI) was calculated as follows: FICI = FIC (inhibitor) + FIC (antibiotic) = MIC inhibitor in combination/ MIC inhibitor alone + MIC antibiotic in combination/MIC antibiotic alone. FIC = Fractional Inhibitory Concentration. A FICI value of < 0.5 indicates synergy, a value between 0.5 and 2 indicates additivity or indifference, and a value > 2 indicates antagonism.

[3] = Cytotoxicity assay (Sulforhodamine B); type: cell-based; conditions: human
Method: The cytotoxicity was detected by Sulforhodamine B method. The human pancreatic cancer cell line Capan-1, human colon cancer cell line HCT-116 and human lung adenocarcinoma cell line NCI-H1373 were purchased from American Type Culture Collection (ATCC; Manassas, VA) and inoculated into 96-well plates in triplicate. The cells were treated with different concentrations of compounds in humidified incubator containing 5% CO2 for 72 h when they reached 70%-80% confluence. Vincristine was added as a positive control. Then, SRB staining agent was added and microplate analyzer was used to read the absorbance at 450 nm wavelength. The cytotoxicity of each compound is expressed as the concentration of the compound that reduces cell viability to 50% (IC50). The optical density (OD) at a wavelength of 450 nm was measured using an SpectraMax 190 Microplate Reader (Molecular Devices; USA). The IC50 value was calculated by the Logit method using Graphpad Prism 9.1.

USA300 LAC [4] = assay: MIC determination, broth microdilution; conditions: Staphylococcus aureus
[5] = tested on: TntarO::vraXpro-lux (S.aureus JE2 tarO mutant); assay: vraXpro-lux induction and growth of tarO mutant (target verification); type: cell-based, Staphylococcus aureus; conditions: different concentrations
Method: Second, the vraXpro-lux induction and growth inhibition experiment were conducted using a tarO mutant, as we assumed that a compound with other targets may still change the growth characteristic and the vraXpro-lux expression pattern of the mutant, whereas a TarO inhibitor would not, as its target is absent in the mutant.
Generally, JE2::vraXpro-lux and its isogenic ^TntarO::vraXpro-lux reporter strains were used for preliminary screening and cellular-based target verification. JE2::vraXpro-lux was obtained by transduction of the vraXpro-lux fusions from RN4220 strain to JE2, a plasmid-cured derivative of the community-associated MRSA strain USA300 LAC. ^TntarO::vraXpro-lux was further obtained by transposon insertion mutation of the tarO gene using a mariner-based transposon in JE2 reporter strain[41]. […] Then, 200 μL aliquot of the samples were distributed to a 96-well black-wall clear-bottom plate (Costar, Corning Incorporated), and 45 μL saxoline was added to each well to prevent the evaporation of the medium. vraXpro-lux expression level and the growth curve were measured using a Cytation 1 Multi-Mode Microplate Reader (Biotek) at different time points as indicated.

[6] = Solubility of compounds in water (HPLC); type: physicochemical; conditions: pure water
Method: Weigh the sample in a 10 mL volumetric flask, dissolve in methanol up to the mark to obtain a reference solution of known concentration. Inject 5 μL into the HPLC, detect peak area at 254 nm wavelength. Prepare supersaturated aqueous solution of the sample, filter and inject 5 μL into the HPLC, detect peak area at 254 nm wavelength. The solubility of the compound in water […] is calculated according to the following formula: CS = CA × AB/AA (CA represents the concentration of the reference solution, AA represents the peak area of the reference solution, and AB represents the saturated peak area of the sample).

USA400 MW2 [7] = assay: MIC determination, broth microdilution; conditions: Staphylococcus aureus
[8] = tested on: S.aureus USA300 LAC biofilm; assay: Static biofilm inhibition assay (crystal violet); type: cell-based, Staphylococcus aureus
USA400 MW2 [9] = assay: Checkerboard MIC assay with oxacillin; type: cell-based, Staphylococcus aureus; conditions: for FICI / Sensitization fold / Maximum sensitization concentration / Minimum sensitization concentration: USA400 MW2/oxacillin; for Maximum sensitization concentration / Minimum sensitization concentration: test range 0.03–32 μg/mL; for MIC of β-lactam, combined: USA400 MW2
Method: as §1

USA300 LAC [10] = assay: Checkerboard MIC assay with oxacillin; type: cell-based, Staphylococcus aureus; conditions: USA300 LAC/oxacillin; for Minimum sensitization concentration: test range 0.03–32 μg/mL
Method: as §1

[11] = tested on: S.aureus USA300 LAC wild-type; assay: Antagonistic (chemical suppression) test of 18a against Targocil, checkerboard
[12] = tested on: ΔtarO strain of USA300 LAC; assay: Chemical suppression test, Targocil on tarO null mutant control; conditions: Targocil 2–64 μg/mL
[13] = Preliminary liver microsomal stability testing; type: in vitro ADME, Mouse; conditions: for Clint In Vitro / Comments (metabolic stability): Mouse liver microsomes; for half-life at 0.1 μM: pH 7.4, Mouse liver microsomes 0.33 mg/mL, 0.1 μM compound
Method: 6. Supplementary Ta b l e 3: Preliminary liver microsomal stability testing of Ta r O
Compounds Species T1/2 Clint In Vitro MF […]
a MF: metabolic bioavailability.
Microsomes in 0.1 M TRIS buffer pH 7.4 (final concentration 0.33 mg/mL), co- factor MgCl2 (final concentration 5 mM) and tested compound (final concentration 0.1 μM, co-solvent 0.01% DMSO and 0.005% Bovin serum albumin BSA) were incubated at 37°C for 10 min. The reaction was started by the addition of NADPH (final concentration 1 mM). Aliquots were sampled at 0, 5, 15, 30 and 60 min respectively and methanol (cold in wet ice) was added to terminate the reaction.
After centrifugation (4000rpm,5 min), samples were then analyzed by LC- MS/MS.

MRSA HS663 strain = assay: Galleria mellonella larva infection assay; conditions: for survival time of infected larvae: HS663 1.5 × 10^6 CFU
Method: Galleria mellonella infection experiment was performed according to previous methods[24]. Generally, HS663 was grown overnight in TSB (Tryptone Soya Broth) at 37 °C with shaking at 250 rpm. Then cultures were diluted 1:100 into 10 ml fresh TSB, and were further grown for 3 h. The bacterial cells were harvested by centrifugation at 5700 g for 5 min, washed twice with sterilized PBS, and suspended with PBS. Galleria mellonella larvae (Tianjin HuiYuDe Biotechnological Co., Ltd.) about 300 mg was selected to infect. […] After infection for 1 h, the larvae were administrated with compounds or solvent only. Then the Galleria mellonella larvae was cultivated at 37 °C and survival rates were recorded every 12 h for 5 days to analyze the mortality data.

[14] = at maximum sensitization concentration
[15] = at minimum sensitization concentration
[16] = imipenem with TarO inhibitor at maximum sensitization concentration
[17] = imipenem with TarO inhibitor at minimum sensitization concentration
[18] = Capan-1 cells (human pancreatic cancer cell line), Capan-1, 72 h
[19] = HCT-116 cells (human colon cancer cell line), HCT-116, 72 h
[20] = NCI-H1373 cells (human lung adenocarcinoma cell line), NCI-H1373, 72 h
[21] = oxacillin with TarO inhibitor at maximum sensitization concentration
[22] = oxacillin with TarO inhibitor at minimum sensitization concentration

SMILES	MIC (HS663 [1]; Staphylococcus aureus)	IC50 (TarO)	FICI (HS663 [2]; [14])	Sensitization fold (HS663 [2]; [14])	FICI (HS663 [2]; [15])	Sensitization fold (HS663 [2]; [15])	Maximum sensitization concentration (HS663 [2])	Minimum sensitization concentration (HS663 [2])	MIC of β-lactam, combined (HS663 [2]; [16])	MIC of β-lactam, combined (HS663 [2]; [17])	MIC (USA300 LAC [4])	MIC (USA400 MW2 [7])	Sensitization fold (USA400 MW2 [9]; [14])	FICI (USA400 MW2 [9]; [15])	Sensitization fold (USA400 MW2 [9]; [15])	Maximum sensitization concentration (USA400 MW2 [9])	Minimum sensitization concentration (USA400 MW2 [9])	MIC of β-lactam, combined (USA400 MW2 [9]; [21])	MIC of β-lactam, combined (USA400 MW2 [9]; [22])	FICI (USA300 LAC [10]; [14])	also measured
C[C@H]1[C@@H](c2cc(C(F)(F)F)cc(C(F)(F)F)c2)OC(=O)N1C(=O)Cc1cccc2ccccc12 [Tarocin A, reference compound]	> 256 µg/mL	9.7 µM	<0.14	8	<0.51	2	2 µg/mL	0.25 µg/mL	8 µg/mL	32 µg/mL	> 256 µg/mL	> 256 µg/mL	16	<0.51	2	0.5 µg/mL	0.06 µg/mL	1 µg/mL	8 µg/mL	<0.26	induction of vraXpro-lux expression (TarO; MRSA USA300 LAC strain, exponential growth phase): concentration-dependent manner; bacterial growth density (OD600) (TarO; post-exponential growth phase): effectively reduced the bacterial growth density; IC50 at 72 h [3, 18]: > 20 µM; IC50 at 72 h [3, 19]: > 20 µM; IC50 at 72 h [3, 20]: > 20 µM; vraXpro-lux expression pattern and growth characteristics of the tarO mutant [5]: neither Tarocin A nor 18a further changed the vraXpro-lux expression pattern as well as the growth characteristics of the mutant; water solubility [6]: almost insoluble in pure water; static biofilm formation ([8]; USA300 LAC, tested concentration range 0.03 to 32 μg/mL): did not reduce static biofilm formation; FICI (USA400 MW2 [9]; [14]): <0.07; Sensitization fold (USA300 LAC [10]; [14]): 4; FICI (USA300 LAC [10]; [15]): <0.51; Sensitization fold (USA300 LAC [10]; [15]): 2; Minimum sensitization concentration (USA300 LAC [10]): 0.06 µg/mL
CCN(CC)c1nc2c(S(=O)(=O)c3ccc(Cl)cc3)nnn2c2cc(OC)c(OC)cc12 [Targocil, reference compound]	–	–	–	–	–	–	–	–	–	–	–	–	–	–	–	–	–	–	–	–	MIC ([11]; Targocil alone, WT S.aureus): about 8 μg/mL; lethal effect on the tarO mutant [12]: did not exhibit a lethal effect
C[C@H]1[C@@H](c2cc(C(F)(F)F)cc(C(F)(F)F)c2)OC(=O)N1C(=O)CCN1CCCc2ccccc21 [Compound 10]	> 256 µg/mL	0.14 µM	<0.02	64	<0.13	8	0.25 µg/mL	0.03 µg/mL	1 µg/mL	8 µg/mL	> 256 µg/mL	> 256 µg/mL	16	<0.13	8	0.12 µg/mL	0.03 µg/mL	1 µg/mL	2 µg/mL	<0.07	Clint In Vitro [13]: 1779 mL/min/gprot; Comments (metabolic stability) [13]: poor; half-life at 0.1 μM [13]: 70.8 s; IC50 at 72 h [3, 18]: > 20 µM; IC50 at 72 h [3, 19]: > 20 µM; IC50 at 72 h [3, 20]: > 20 µM; inhibition of biofilm formation ([8]; 0.125 μg/mL): near a half; inhibition at 0.5 µg/mL ([8]; Staphylococcus aureus, USA300, read-out: inhibition of biofilm formation): > 90%; FICI (USA400 MW2 [9]; [14]): <0.07; Sensitization fold (USA300 LAC [10]; [14]): 16; FICI (USA300 LAC [10]; [15]): <0.13; Sensitization fold (USA300 LAC [10]; [15]): 8; Minimum sensitization concentration (USA300 LAC [10]): 0.03 µg/mL
C[C@H]1[C@@H](c2cc(C(F)(F)F)cc(C(F)(F)F)c2)OC(=O)N1C(=O)CCn1ccc(=O)c2cccnc21 [Compound 18a]	> 256 µg/mL	3.66 µM	<0.15	8	<0.51	2	4 µg/mL	0.03 µg/mL	8 µg/mL	32 µg/mL	> 256 µg/mL	> 256 µg/mL	64	<0.26	4	32 µg/mL	0.03 µg/mL	0.25 µg/mL	4 µg/mL	<0.13	Clint In Vitro [13]: 3051 mL/min/gprot; Comments (metabolic stability) [13]: poor and did not achieve the desired result; half-life at 0.1 μM [13]: 41.4 s; MIC (HS663 [1]; HS663, compound alone): exceeds 256 μg/mL; IC50 at 72 h ([3]; Capan-1, 72 h): > 20 µM; IC50 at 72 h ([3]; HCT-116, 72 h): > 20 µM; IC50 at 72 h ([3]; NCI-H1373, 72 h): > 20 µM; concentration (as low as) alleviating the growth inhibition of Targocil ([11]; WT strain, 18a range 0.25–128 μg/mL): 0.25 µg/mL; extension of survival time (MRSA HS663 strain; 16 mg/kg, higher infection dose, HS663 2.0 × 10^6 CFU): even higher than that of 20 mg/kg of imipenem treating group; survival rate of infected larvae, combination (MRSA HS663 strain; 18a 16 mg/kg in combination with 20 mg/kg imipenem, compared with imipenem alone, 2.0 × 10^6 CFU): a further improvement in the survival rate; survival time of infected larvae (MRSA HS663 strain; single administration 8 mg/kg): significantly extended the survival time; survival time of infected larvae (MRSA HS663 strain; single administration 16 mg/kg): significantly extended the survival time; vraXpro-lux expression pattern and growth characteristics of the tarO mutant [5]: neither Tarocin A nor 18a further changed the vraXpro-lux expression pattern as well as the growth characteristics of the mutant; solubility [6]: 20 µg/mL (≈ 39 µM); concentration (as low as) significantly reducing biofilm formation ([8]; USA300 LAC, 24 h static culture): 8 µg/mL; Sensitization fold (USA300 LAC [10]; [14]): 256; FICI (USA300 LAC [10]; [15]): <0.13; Sensitization fold (USA300 LAC [10]; [15]): 8; Minimum sensitization concentration (USA300 LAC [10]): 0.03 µg/mL
